Nine molecules from patent US12252487B2, “Dominant salt forms of pyrimidine derivatives, and crystal forms thereof” (GUANGDONG RAYNOVENT BIOTECH CO., LTD., priority 2019, dated 2025) can be followed below.

What is called solubility is how much of the substance goes into solution per volume.

SMILES strings stand for the structures. In brackets after ≈: the same amount, converted by molar mass.

Type in all cases: physicochemical
The nature of data set [1]: Solubility of Compound 1 in 19 types of solvents at room temperature. The following applies: for solubility: thermodynamic from solid. From the text: Compound 1 was detected at room temperature for its solubility in 19 types of solvents. Specially, Compound 1 obtained in Example 1 was taken as sample for detecting its solubility in methanol, ethanol, water, acetonitrile, dioxane and other solvents.

A short description of data set [2]: Stability study of crystal forms, XRPD characterization on day 14. On the procedure:
An amount of sample to be tested was weighed and placed in a dish under conditions including high temperature (60° C.), high humidity (25° C., 92.5% RH), light radiation (25° C., 4500 Lux) and acceleration conditions (40° C., 75% RH), respectively, and sampled for XRPD characterization on day 14. Form I, Form II, Form III were taken for stability study under conditions including high temperature (60° C.), high humidity (25° C., 92.5% RH), light radiation (25° C., 4500 Lux), and acceleration conditions (40° C., 75% RH), and the results are shown in Table 2: […]

Data set [3] is described as follows: XRPD of crystal form after DVS test. From the text: The crystal form IV is obtained by heating the crystal form III to lose some crystalline water.
Data set [4] can be described thus: Crystal form transition observed during experiment / post-treatment. The following applies: e.g. drying under vacuum at ambient temperature. An excerpt: The crystal form VII and the crystal form VIII can be obtained by similar method but by different post-treatment means.

In the case of `O=C(O)[C@H]1C2CCC(CC2)[C@@H]1Nc1nc(-c2n[nH]c3ncc(F)cc23)nc(C2CC2)c1F` [Compound 1], the “Solubility as a whole compared with WX-216” value in data set [1] (19 solvents, room temperature) is “better than that of WX-216”. For the same molecule, the solubility in data set [1] (organic solvent or mixture, solvent Acetone, 3000 μL, not dissolved completely at 50° C.) is under 3300 µg/mL; in data set [1] (organic solvent or mixture, solvent Acetonitrile, 3000 μL, not dissolved completely at 50° C.) it was under 3300 µg/mL; in data set [1] (organic solvent or mixture, solvent Dichloromethane, 3000 μL, not dissolved completely at 50° C.), under 3300 µg/mL; in data set [1] (organic solvent or mixture, solvent Dimethylformamide, 200 μL), over 50000 µg/mL; in data set [1] (organic solvent or mixture, solvent Dimethylsulfoxide, 200 μL), over 50000 µg/mL; in data set [1] (organic solvent or mixture, solvent Dioxane, 3000 μL, not dissolved completely at 50° C.), under 3300 µg/mL. In addition, the solubility is under 3300 µg/mL in data set [1] (organic solvent or mixture, solvent Ethanol, 3000 μL, not dissolved completely at 50° C.); under 3300 µg/mL in data set [1] (organic solvent or mixture, solvent Ethyl acetate, 3000 μL, not dissolved completely at 50° C.); under 3300 µg/mL in data set [1] (organic solvent or mixture, solvent Ethyl formate, 3000 μL, not dissolved completely at 50° C.); under 3300 µg/mL in data set [1] (organic solvent or mixture, solvent Ethylene glycol dimethyl ether, 3000 μL, not dissolved completely at 50° C.); over 50000 µg/mL in data set [1] (organic solvent or mixture, solvent Ethylene glycol monomethyl ether, 200 μL); under 3300 µg/mL in data set [1] (organic solvent or mixture, solvent Iso-propanol, 3000 μL, not dissolved completely at 50° C.). Also, the solubility was 20000 to 50000 µg/mL (≈ 45.4 to 114 mM) in data set [1] (organic solvent or mixture, solvent Methanol, 500 μL); under 3300 µg/mL in data set [1] (organic solvent or mixture, solvent Methyl isobutyl ketone, 3000 μL, not dissolved completely at 50° C.); under 3300 µg/mL in data set [1] (organic solvent or mixture, solvent Methyl tert-butyl ether, 3000 μL, not dissolved completely at 50° C.); under 3300 µg/mL in data set [1] (organic solvent or mixture, solvent N-hexane, 3000 μL, not dissolved completely at 50° C.); under 3300 µg/mL in data set [1] (organic solvent or mixture, solvent N-propanol, 3000 μL, not dissolved completely at 50° C.); under 3300 µg/mL in data set [1] (organic solvent or mixture, solvent Tetrahydrofuran, 3000 μL, not dissolved completely at 50° C.). For the same molecule, the solubility in data set [1] (solvent Water, 200 μL) was over 50000 µg/mL.

As to `O=C(O)[C@H]1C2CCC(CC2)[C@@H]1Nc1nc(-c2n[nH]c3ncc(F)cc23)nc(C2CC2)c1F` [Crystal Form II], the “Results on Day 14 (XRPD)” value is given as “No changes” in data set [2] (High humidity (25° C., 92.5% RH)) and “No changes” in data set [2] (High temperature (60° C.)).

As for `O=C(O)[C@H]1C2CCC(CC2)[C@@H]1Nc1nc(-c2n[nH]c3ncc(F)cc23)nc(C2CC2)c1F` [Crystal Form I], the “Results on Day 14 (XRPD)” value in data set [2] (Acceleration conditions (40° C., 75% RH)) is recorded as “No changes”; in data set [2] (Light radiation (25° C., 4500 Lux)), “No changes”.

As to `O=C(O)[C@H]1C2CCC(CC2)[C@@H]1Nc1nc(-c2n[nH]c3ncc(F)cc23)nc(C2CC2)c1F` [crystal form IV], in data set [3], the “Crystal form change after DVS test (XRPD)” value is listed as “does not change”.

In the case of `O=C(O)[C@H]1C2CCC(CC2)[C@@H]1Nc1nc(-c2n[nH]c3ncc(F)cc23)nc(C2CC2)c1F` [crystal form IX], the “Stability of the crystal form as concluded from crystal form transitions” value (“Stability of the crystal form” below) in data set [4] is listed as “intermediate metastable crystal form”.

As for `O=C(O)[C@H]1C2CCC(CC2)[C@@H]1Nc1nc(-c2n[nH]c3ncc(F)cc23)nc(C2CC2)c1F` [crystal form VIII], in data set [4], the “Stability of the crystal form” value is reported as “high stability”.

As to `O=C(O)[C@H]1C2CCC(CC2)[C@@H]1Nc1nc(-c2n[nH]c3ncc(F)cc23)nc(C2CC2)c1F` [crystal form VII], the “Stability of the crystal form” value in data set [4] was “high stability”.

Regarding `O=C(O)[C@H]1C2CCC(CC2)[C@@H]1Nc1nc(-c2n[nH]c3ncc(F)cc23)nc(C2CC2)c1F` [crystal form VI], the “Stability of the crystal form” value in data set [4] is “unstable crystal form”.

As for `O=C(O)[C@H]1C2CCC(CC2)[C@@H]1Nc1nc(-c2n[nH]c3ncc(F)cc23)nc(C2CC2)c1F` [crystal form V], the “Stability of the crystal form” value in data set [4] is “high stability”.
